From ChEMBL document CHEMBL5678818, “Discovery of potent SOS1 inhibitors that block RAS activation via disruption of the RAS-SOS1 interaction” (Proc Natl Acad Sci U S A, 2019)

Tests used:
[1] = test system: Receptor-type tyrosine-protein kinase FLT3 (Homo sapiens), P36888 [UNDEFINED MUTATION]; experiment: Inhibition of FLT3 ITD/F691L mutant (unknown origin) assessed as residual activity at 1000 nM by KINOMEscan analysis relative to control
[2] = biological target: Tyrosine-protein kinase HCK (Homo sapiens) (UniProt P08631); experiment: Inhibition of HCK (unknown origin) assessed as residual activity at 100 nM by KINOMEscan analysis relative to control
Tyrosine-protein kinase HCK (Homo sapiens), sequence (P08631 2-526 limits assumed): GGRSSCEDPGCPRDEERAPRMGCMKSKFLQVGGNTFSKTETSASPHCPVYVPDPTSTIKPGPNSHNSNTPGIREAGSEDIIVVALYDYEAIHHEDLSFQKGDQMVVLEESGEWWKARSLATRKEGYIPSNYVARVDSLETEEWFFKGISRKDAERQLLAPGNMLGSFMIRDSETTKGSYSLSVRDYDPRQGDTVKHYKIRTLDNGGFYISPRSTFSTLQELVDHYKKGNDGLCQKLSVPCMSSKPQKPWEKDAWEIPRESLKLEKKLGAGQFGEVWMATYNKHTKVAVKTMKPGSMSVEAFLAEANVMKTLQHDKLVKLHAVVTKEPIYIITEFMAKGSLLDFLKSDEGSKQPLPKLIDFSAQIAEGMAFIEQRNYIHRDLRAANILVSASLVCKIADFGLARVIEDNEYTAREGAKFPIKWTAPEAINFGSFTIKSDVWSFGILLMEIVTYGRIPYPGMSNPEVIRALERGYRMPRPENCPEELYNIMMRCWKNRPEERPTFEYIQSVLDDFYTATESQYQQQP

[3] = biological target: Mitogen-activated protein kinase 14 (Homo sapiens) (UniProt Q16539); experiment: Inhibition of p38-alpha (unknown origin) assessed as residual activity at 100 nM by KINOMEscan analysis relative to control
Mitogen-activated protein kinase 14 (Homo sapiens), sequence (Q16539 whole entry): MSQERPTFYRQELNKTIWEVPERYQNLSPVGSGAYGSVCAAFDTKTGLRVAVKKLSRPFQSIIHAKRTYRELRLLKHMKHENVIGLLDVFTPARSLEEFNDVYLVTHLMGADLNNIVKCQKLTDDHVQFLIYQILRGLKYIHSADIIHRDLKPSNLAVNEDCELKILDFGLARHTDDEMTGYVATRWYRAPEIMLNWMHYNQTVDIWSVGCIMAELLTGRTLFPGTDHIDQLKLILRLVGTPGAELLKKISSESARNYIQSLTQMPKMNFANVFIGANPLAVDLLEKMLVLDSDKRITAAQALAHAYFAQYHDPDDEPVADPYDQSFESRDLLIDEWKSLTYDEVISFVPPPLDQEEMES

[4] = biological target: BMP-2-inducible protein kinase (Homo sapiens) (UniProt Q9NSY1); experiment: Inhibition of BIKE (unknown origin) assessed as residual activity at 100 nM by KINOMEscan analysis relative to control
BMP-2-inducible protein kinase (Homo sapiens), sequence (Q9NSY1 whole entry, looked up): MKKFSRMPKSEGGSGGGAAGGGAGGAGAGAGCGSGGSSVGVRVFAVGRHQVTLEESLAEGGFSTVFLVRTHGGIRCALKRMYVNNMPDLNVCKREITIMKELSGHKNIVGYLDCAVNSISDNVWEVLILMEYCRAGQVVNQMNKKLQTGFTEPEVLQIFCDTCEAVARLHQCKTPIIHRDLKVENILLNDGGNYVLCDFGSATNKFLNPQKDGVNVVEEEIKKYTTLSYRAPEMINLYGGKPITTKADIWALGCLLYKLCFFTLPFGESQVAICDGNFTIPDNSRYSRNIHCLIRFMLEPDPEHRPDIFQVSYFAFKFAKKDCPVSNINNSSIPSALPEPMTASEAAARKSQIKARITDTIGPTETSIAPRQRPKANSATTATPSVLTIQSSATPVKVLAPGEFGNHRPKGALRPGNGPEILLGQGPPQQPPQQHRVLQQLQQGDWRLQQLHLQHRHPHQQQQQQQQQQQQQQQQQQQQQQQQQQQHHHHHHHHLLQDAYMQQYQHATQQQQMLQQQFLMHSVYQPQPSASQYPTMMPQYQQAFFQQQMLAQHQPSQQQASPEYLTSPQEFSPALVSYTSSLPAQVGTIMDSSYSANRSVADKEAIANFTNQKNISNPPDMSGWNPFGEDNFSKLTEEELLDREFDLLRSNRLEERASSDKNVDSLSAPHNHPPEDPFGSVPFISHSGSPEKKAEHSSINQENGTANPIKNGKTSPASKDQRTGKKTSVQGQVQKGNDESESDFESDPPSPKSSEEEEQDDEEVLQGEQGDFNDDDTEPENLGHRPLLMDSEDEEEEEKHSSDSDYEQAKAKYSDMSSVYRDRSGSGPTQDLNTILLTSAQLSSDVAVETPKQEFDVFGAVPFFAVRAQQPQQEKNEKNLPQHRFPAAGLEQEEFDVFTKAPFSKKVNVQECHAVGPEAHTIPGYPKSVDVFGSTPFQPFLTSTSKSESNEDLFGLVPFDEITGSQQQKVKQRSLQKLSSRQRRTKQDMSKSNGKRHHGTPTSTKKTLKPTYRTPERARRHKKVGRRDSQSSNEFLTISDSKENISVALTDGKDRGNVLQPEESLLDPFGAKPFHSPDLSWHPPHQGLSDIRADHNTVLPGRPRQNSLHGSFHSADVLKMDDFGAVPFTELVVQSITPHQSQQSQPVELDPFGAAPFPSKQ

[5] = biological target: Cyclin-dependent kinase 5 (Homo sapiens) (UniProt Q00535); experiment: Inhibition of CDK5 (unknown origin) assessed as residual activity at 100 nM by KINOMEscan analysis relative to control
Cyclin-dependent kinase 5 (Homo sapiens), sequence (Q00535 whole entry, looked up, the tested form may be a part): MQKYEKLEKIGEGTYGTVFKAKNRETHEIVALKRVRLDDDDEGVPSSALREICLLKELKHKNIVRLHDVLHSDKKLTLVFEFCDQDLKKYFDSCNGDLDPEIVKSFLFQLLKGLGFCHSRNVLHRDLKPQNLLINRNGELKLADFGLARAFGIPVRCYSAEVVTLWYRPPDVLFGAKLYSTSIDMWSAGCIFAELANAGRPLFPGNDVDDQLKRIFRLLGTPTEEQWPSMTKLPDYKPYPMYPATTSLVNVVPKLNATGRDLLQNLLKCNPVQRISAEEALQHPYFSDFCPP

[6] = biological target: Ribosomal protein S6 kinase alpha-6 (Homo sapiens) (UniProt Q9UK32); experiment: Inhibition of C-terminal RSK4 kinetic domain 2 (unknown origin) assessed as residual activity at 100 nM by KINOMEscan analysis relative to control
Ribosomal protein S6 kinase alpha-6 (Homo sapiens), sequence (Q9UK32 whole entry, the tested form may be a part): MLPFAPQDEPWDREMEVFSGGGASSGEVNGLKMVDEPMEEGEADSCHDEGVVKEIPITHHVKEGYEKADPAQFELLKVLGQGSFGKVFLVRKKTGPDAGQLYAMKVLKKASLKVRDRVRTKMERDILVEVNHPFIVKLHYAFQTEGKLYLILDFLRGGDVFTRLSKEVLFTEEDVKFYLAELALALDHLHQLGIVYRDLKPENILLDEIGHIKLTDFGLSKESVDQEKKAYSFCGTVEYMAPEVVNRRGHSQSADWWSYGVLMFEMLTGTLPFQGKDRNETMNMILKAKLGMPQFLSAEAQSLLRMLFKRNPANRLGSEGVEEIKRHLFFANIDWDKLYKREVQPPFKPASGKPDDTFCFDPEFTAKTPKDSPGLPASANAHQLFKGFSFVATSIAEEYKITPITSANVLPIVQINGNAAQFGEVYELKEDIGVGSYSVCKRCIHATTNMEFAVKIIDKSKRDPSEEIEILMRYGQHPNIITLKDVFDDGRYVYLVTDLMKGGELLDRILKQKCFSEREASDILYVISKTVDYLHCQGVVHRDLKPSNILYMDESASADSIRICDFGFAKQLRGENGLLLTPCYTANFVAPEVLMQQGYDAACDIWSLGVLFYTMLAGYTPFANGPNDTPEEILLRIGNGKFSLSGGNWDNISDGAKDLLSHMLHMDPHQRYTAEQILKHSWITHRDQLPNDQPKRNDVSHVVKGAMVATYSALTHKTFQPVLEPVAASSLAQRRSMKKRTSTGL

[7] = biological target: Cyclin-dependent kinase 8 (Homo sapiens) (UniProt P49336); experiment: Inhibition of CDK8 (unknown origin) assessed as residual activity at 100 nM by KINOMEscan analysis relative to control
Cyclin-dependent kinase 8 (Homo sapiens), sequence (P49336 whole entry): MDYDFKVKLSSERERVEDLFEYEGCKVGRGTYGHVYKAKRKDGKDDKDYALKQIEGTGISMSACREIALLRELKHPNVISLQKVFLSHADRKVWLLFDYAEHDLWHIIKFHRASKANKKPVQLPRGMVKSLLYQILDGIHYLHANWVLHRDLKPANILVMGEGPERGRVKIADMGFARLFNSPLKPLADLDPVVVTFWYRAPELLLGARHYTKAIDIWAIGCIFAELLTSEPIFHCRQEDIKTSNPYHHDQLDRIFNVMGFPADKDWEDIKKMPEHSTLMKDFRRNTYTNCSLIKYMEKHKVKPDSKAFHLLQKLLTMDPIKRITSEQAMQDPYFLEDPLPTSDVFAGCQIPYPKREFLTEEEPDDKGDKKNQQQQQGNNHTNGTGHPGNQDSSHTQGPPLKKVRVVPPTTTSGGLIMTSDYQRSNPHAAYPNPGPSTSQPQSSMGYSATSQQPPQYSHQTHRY

[8] = test system: Proto-oncogene tyrosine-protein kinase receptor Ret (Homo sapiens), P07949 [V804M]; experiment: Inhibition of RET V804M mutant (unknown origin) assessed as residual activity at 100 nM by KINOMEscan analysis relative to control
Proto-oncogene tyrosine-protein kinase receptor Ret (Homo sapiens), P07949 [V804M], sequence (P07949 whole entry V804M, the tested form may be a part): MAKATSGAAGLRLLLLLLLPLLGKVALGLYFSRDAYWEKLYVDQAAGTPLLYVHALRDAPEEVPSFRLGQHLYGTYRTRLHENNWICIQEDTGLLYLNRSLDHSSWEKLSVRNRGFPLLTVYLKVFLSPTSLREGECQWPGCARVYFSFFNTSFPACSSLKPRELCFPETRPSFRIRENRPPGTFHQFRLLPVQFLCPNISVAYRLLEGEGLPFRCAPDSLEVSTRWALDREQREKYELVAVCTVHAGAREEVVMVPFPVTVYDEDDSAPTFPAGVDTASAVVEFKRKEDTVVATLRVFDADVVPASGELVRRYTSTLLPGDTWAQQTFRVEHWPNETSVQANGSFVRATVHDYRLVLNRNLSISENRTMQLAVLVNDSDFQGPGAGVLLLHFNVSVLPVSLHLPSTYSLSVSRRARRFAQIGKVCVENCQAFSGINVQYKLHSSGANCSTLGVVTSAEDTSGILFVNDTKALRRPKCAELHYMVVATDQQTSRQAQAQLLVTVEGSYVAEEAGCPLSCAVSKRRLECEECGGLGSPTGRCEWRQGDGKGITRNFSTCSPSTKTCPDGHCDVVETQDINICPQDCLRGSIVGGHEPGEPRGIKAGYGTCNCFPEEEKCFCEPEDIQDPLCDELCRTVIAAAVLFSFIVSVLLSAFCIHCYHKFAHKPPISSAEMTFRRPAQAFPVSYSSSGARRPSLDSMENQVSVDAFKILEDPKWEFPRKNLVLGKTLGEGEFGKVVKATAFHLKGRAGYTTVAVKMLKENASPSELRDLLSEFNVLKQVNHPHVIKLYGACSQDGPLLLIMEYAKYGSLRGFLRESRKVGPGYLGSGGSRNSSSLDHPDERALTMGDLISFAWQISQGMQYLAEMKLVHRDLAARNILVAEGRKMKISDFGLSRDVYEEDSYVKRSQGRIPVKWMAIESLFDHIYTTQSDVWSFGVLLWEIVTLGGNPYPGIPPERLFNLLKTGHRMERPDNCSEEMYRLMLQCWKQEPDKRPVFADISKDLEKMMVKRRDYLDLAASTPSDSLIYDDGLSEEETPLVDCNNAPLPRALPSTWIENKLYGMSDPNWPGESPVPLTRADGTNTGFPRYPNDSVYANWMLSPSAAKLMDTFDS

[9] = biological target: Non-receptor tyrosine-protein kinase TYK2 (Homo sapiens) (UniProt P29597); experiment: Inhibition of TYK2 JH2 pseudokinase domain (unknown origin) assessed as residual activity at 100 nM by KINOMEscan analysis relative to control
[10] = biological target: T1, Dual specificity tyrosine-phosphorylation-regulated kinase 2 (Homo sapiens) (UniProt Q92630); experiment: Inhibition of DYRK2 (unknown origin) assessed as residual activity at 100 nM by KINOMEscan analysis relative to control
T1 sequence (whole entry): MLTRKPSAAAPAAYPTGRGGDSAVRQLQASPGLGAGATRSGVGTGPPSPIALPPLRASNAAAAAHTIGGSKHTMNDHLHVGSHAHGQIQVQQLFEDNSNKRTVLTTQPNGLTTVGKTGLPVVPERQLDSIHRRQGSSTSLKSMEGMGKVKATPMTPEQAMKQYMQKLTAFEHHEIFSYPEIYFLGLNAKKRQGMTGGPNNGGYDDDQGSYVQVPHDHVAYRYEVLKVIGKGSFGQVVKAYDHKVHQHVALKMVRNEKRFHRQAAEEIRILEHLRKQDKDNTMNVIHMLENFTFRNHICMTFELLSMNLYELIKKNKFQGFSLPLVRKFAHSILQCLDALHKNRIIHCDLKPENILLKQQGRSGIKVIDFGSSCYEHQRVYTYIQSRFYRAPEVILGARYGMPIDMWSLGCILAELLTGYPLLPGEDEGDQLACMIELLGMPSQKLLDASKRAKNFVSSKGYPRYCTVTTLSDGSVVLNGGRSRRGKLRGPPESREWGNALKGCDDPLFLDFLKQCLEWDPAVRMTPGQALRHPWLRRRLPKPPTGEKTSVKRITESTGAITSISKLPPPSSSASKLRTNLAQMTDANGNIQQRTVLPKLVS

[11] = biological target: Vascular endothelial growth factor receptor 1 (Homo sapiens) (UniProt P17948); experiment: Inhibition of FLT1 (unknown origin) assessed as residual activity at 100 nM by KINOMEscan analysis relative to control
[12] = biological target: Serine/threonine-protein kinase PAK 6 (Homo sapiens) (UniProt Q9NQU5); experiment: Inhibition of PAK6 (unknown origin) assessed as residual activity at 100 nM by KINOMEscan analysis relative to control
[13] = biological target: T2, Serine/threonine-protein kinase RIO1 (Homo sapiens) (UniProt Q9BRS2); experiment: Inhibition of RIOK1 (unknown origin) assessed as residual activity at 100 nM by KINOMEscan analysis relative to control
T2 sequence (whole entry): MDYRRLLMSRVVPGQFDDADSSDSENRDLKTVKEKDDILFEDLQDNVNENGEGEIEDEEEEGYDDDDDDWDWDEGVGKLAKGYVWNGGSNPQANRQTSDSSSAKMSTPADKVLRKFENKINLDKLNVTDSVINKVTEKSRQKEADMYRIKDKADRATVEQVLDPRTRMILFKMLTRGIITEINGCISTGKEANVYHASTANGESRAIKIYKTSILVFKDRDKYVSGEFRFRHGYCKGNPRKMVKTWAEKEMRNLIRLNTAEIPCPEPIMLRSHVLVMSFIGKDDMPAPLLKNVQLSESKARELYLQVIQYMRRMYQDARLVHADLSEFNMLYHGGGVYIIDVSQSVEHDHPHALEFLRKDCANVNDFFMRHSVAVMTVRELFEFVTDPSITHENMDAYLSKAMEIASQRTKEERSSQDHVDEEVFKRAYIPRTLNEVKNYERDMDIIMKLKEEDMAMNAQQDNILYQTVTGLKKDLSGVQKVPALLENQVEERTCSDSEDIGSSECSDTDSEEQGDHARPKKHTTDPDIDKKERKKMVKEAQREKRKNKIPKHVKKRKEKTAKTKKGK

[14] = biological target: Activin receptor type-1-like (Homo sapiens) (UniProt P37023); experiment: Inhibition of ACVRL1 (unknown origin) assessed as residual activity at 100 nM by KINOMEscan analysis relative to control

SMILES | Activity [1] [%] | Activity [2] [%] | Activity [3] [%] | Activity [4] [%] | Activity [5] [%] | Activity [6] [%] | Activity [7] [%] | Activity [8] [%] | Activity [9] [%] | Activity [10] [%] | Activity [11] [%] | Activity [12] [%] | Activity [13] [%] | Activity [14] [%]
COc1cc2nc(C)nc(N[C@H](C)c3cccc(-c4cn[nH]c4)c3)c2cc1OC | 86 |  |  |  |  |  |  |  |  |  |  |  |  | 
COc1cc2ncnc(N[C@H](C)c3cccc4ccccc34)c2cc1OC |  | 88 | 89 | 93 | 83 | 86 | 91 | 100 | 100 | 80 | 93 | 92 | 58 | 82
